Source: paper PMC6271231 (Molecules, 2014)
Entries after “also recorded” stand apart in the source; their conditions may differ. Read-outs that look alike come from different tables or passages of the source.

Columns and labels:
[1] = target: NA of A/Sydney/5/97 (H3N2) (Influenza A virus, UniProt Q9DIC9); test: Neuraminidase inhibition assay (fluorimetric, MUNANA); assay type: biochemical, influenza A virus A/Sydney/5/97 (H3N2)
[2] = tested on: IL-6 production in H1N1-infected A549 cells; assay type: cell-based, human
[3] = tested on: MCP-1 production in H1N1-infected A549 cells; assay type: cell-based, human
[4] = NA from A/Sydney/5/97 (H3N2), 37 °C, 40 min, pH 6.5, read-out: IC50, inhibition of NA, A/Sydney/5/97(H3N2) (converted)

SMILES | IC50 [1, 4] [µM] | inhibition of IL-6 expression induced by influenza H1N1 virus (in words) [2] | inhibition of MCP-1 expression induced by influenza H1N1 virus (in words) [3] | IC50 [1] [µM]
O=C(Oc1cc(O)c2c(c1)OC(c1cc(O)c(O)c(O)c1)C(O)C2)c1cc(O)c(O)c(O)c1 (single isomer, unassigned; (+)) [Compound 3, (+)-3,5,3',4',5'-penta-hydroxyflavan-7-gallate] | > 87.3 | weakest inhibition; also recorded: worst inhibition | worst inhibition | 
CC1(C)O[C@@H]2Cc3c(O)cc(OC(=O)c4cc(O)c(O)c(O)c4)cc3O[C@@H]2c2cc(O)c(O)c(O)c21 [Compound 1, (2R,3R)-7-O-galloylplumbocatechin A] | 64.7 |  | inhibit MCP-1 expression best at the lowest concentrated dilution of 3 μg/mL; also recorded: best results | 
O=C(Oc1cc(O)c2c(c1)O[C@H](c1cc(O)c(O)c(O)c1)CC2)c1cc(O)c(O)c(O)c1 [Compound 2, (−)-5,3',4',5'-tetrahydroxyflavan-7-gallate] | > 90.4 | best inhibitory effect | inhibit MCP-1 expression best at the lowest concentrated dilution of 3 μg/mL | 
O=C(Oc1cc(O)c2c(c1)O[C@H](c1cc(O)c(OC(=O)c3cc(O)c(O)c(O)c3)c(O)c1)CC2)c1cc(O)c(O)c(O)c1 [Compound 4, (−)-7,4'-di-O-galloyltricetiflavan] | > 67.3 |  |  | 
CC(=O)N[C@H]1[C@H]([C@H](O)[C@H](O)CO)OC(C(=O)O)=C[C@@H]1N=C(N)N [zanamivir, reference compound] |  |  |  | 0.000632
